Measured values: patent US8124637B2, “Anthra [1, 2-d]imidazole-6,11-dione derivatives, preparation method and application thereof” (National Defense Medical Center, priority 2010, dated 2012)
“Also recorded” adds a separate entry of the source. Where two headings read alike, the source gives them in different places.

What was measured:
[1] = in vitro; details: human, Relative MTT viability (%)
Description: (§1) Further, cells were subjected to MTT assay to compare the relative toxicity or effect of each compound on cell proliferation and activity.
(§2) The above-described cells are cultured in a 96-well plate, to which was added with 25 μl MTT solution, and cultured in a 37° C. carbon dioxide incubator for 4 hours. Then, 100 μl Lysis buffer is added and incubated in a 37° C. carbon dioxide incubator overnight. An ELISA reader (Bio-Rad Model 450) is used to read optical density (O.D.) at 550 nm.
(§3) After being subjected to different compound treatments for 72 hours, cells were treated with a fixed amount of MTT solution for 28 hours. Then, DMSO was used to dissolve back formazan, an O. D. value was detected at wavelength in the range of 550/670 nm, and calculated accordingly the cell survival rate (as shown in Table 1).

[2] = tested on: hTERT promoter (PhTERT) expression; assay: SEAP assay (PhTERT-SEAP reporter, H1299); assay type: cell-based, human; details: for activity at 1 µM / activity at 10 µM / activity at 100 µM: Homo sapiens, NCI-H1299, PhTERT-SEAP (H1299); for activity at 1 µM: read-out: Relative SEAP activity (%); for activity at 10 µM / activity at 100 µM: read-out: Relative SEAP activity (%) (converted); for Relative SEAP activity (%): PhTERT-SEAP (H1299)
Description: H1299 were grown in RPMI 1640 media supplemented with 10% fetal bovine serum, 100 units/mL penicillin and […] streptomycin in a humidified atmosphere with 5% CO2 at 37° C. Culture media were changed every three days. To establish stable cell lines that the expression of hTERT could be monitored by a reporter system, a about 3.3 kbp DNA fragment ranging from −3338 to +1 bp of the hTERT gene (hTERT promoter, PhTERT) was subcloned upstream to a secreted alkaline phosphatase gene (SEAP) and transfected into H1299 bp electroporation. The stable clones were selected using G418. The stable clones derived from H1299 were cultured using conditions that are similar to their parental cells.
Secreted alkaline phosphatase was used as the reporter system to monitor the transcriptional activity of hTERT. Here, about 10^4 cells each were grown in 96-well plates and incubated at 37° C. for 24 hours and changed with fresh media. Varying amounts of drugs were added and cells were incubated for another 24 hours. Culture media were collected and heated at 65° C. for 10 min to inactivate heat-labile phosphatases. An equal amount of SEAP buffer (2 M diethanolamine, 1 mM MgCl2, and 20 mM L-homoarginine) was added to the media and p-nitrophenyl phosphate was added to a final concentration of 12 mM. Absorptions at 405 nm were taken, and the rate of absorption increase is determined (the increasing rate of absorbance at 405 nm was used to represent the activity of SEAP).

[3] = tested on: H1299 cells
Description: as §1, §2, §3

[4] = tested on: H1299 cells; assay: MTT assay (relative cell survival), H1299; details: PhTERT-SEAP (H1299), 100 μM
Description: as §1, §2, §3

[5] = MTT assay (relative cell survival), H1299; details: human, H1299 non-small cell lung cancer cells (PhTERT-SEAP), Relative MTT viability (%)
Description: as §1, §2, §3

[6] = biological target: T1, telomerase (total cell lysates of lung cancer cell line H1299) (Homo sapiens, UniProt O14746); assay: Telomere repeat amplification protocol (TRAP) assay; assay type: biochemical; details: gel; for inhibition effect/activity of telomerase (TRAP): preliminary screening at 10 μM
T1 construct: As a source of telomerase, the total cell lysates derived from lung cancer cell line H1299 cells were used; endogenous in cells; host or cells: H1299 lung cancer cells (total cell lysate)
Description: Telomerase activity was detected by a modified version of the general TRAP protocol. Telomerase products were resolved by 10% polyacrylamide gel electrophoresis and visualized by staining with SYBER Green. As a source of telomerase, the total cell lysates derived from lung cancer cell line H1299 cells were used. Protein concentration of the lysates was assayed using Bio-Rad protein assay kit using BSA standards.
In the FIGS. 3A, 3B and FIG. 4, a positive control group (P) used water that had been sterilized three times in the assay; while a negative control group (N) used RNase A (CLONTECH) (5 μL, 0.1 mg/mL) in the assay.
In the positive control group (P), due to the absence of inhibitor, the telomerase could extend the telomere, such that some longer telomere fragments could be observed; while there was not observed in the negative control group (N). In the result of TRAP assay (FIG. 3A to 3B), compounds with a concentration of 10 μM was used as the preliminary screening. In the gel, standard compound A was 1,2-diaminoanthraquinone, D was doxorubicin, and M was mitoxantrone.

T1 sequence (O14746 whole entry): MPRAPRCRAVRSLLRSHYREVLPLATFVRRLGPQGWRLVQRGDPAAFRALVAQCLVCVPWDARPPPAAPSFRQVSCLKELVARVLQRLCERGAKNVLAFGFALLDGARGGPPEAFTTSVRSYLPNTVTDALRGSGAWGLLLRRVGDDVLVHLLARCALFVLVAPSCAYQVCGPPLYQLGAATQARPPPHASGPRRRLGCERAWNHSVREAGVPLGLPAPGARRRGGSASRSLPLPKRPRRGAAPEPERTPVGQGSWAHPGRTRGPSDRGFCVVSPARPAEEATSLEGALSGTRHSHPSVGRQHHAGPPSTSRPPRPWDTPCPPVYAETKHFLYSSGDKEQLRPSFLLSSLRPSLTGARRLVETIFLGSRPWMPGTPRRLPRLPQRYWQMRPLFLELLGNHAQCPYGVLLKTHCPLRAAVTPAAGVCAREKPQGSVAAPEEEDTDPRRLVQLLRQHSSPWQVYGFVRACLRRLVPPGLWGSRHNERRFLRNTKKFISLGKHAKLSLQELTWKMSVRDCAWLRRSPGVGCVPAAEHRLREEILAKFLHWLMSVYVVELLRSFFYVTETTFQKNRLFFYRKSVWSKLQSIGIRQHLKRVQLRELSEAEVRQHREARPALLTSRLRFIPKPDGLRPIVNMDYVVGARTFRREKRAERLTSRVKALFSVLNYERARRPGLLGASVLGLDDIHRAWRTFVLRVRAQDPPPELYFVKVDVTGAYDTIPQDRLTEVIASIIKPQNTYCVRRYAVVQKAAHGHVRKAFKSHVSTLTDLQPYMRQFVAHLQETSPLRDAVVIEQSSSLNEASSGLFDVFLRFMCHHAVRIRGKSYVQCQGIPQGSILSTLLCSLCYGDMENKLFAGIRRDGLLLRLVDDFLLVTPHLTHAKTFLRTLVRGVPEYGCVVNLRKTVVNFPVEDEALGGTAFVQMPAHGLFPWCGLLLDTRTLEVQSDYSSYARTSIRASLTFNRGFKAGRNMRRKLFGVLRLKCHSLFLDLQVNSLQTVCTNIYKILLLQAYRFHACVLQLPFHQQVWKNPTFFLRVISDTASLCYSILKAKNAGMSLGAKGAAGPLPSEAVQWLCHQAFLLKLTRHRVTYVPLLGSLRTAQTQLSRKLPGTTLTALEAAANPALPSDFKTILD
T1 sequence (O60832 whole entry partner): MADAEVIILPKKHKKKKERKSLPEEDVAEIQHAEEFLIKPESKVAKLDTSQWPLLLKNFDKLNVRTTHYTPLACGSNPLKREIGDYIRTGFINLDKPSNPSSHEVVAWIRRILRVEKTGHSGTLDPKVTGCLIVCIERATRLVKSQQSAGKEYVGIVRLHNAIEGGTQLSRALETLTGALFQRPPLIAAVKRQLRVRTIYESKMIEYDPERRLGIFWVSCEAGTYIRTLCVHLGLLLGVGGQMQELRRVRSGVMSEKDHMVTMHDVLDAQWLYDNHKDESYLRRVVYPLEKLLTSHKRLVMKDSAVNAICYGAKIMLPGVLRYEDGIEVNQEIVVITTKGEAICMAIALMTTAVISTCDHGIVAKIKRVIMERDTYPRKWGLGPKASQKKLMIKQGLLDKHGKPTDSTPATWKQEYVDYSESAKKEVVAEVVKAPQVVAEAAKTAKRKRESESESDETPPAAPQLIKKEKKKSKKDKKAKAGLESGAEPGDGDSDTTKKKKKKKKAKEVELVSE
T1 sequence (Q9NX24 whole entry partner): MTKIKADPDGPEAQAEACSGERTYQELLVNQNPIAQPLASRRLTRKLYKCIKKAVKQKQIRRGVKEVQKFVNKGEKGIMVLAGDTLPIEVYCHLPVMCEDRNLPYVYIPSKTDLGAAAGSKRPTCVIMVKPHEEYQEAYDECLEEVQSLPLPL
T1 sequence (Q9NPE3 whole entry partner): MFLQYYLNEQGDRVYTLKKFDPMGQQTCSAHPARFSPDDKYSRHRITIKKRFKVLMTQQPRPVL
T1 sequence (Q9NY12 whole entry partner): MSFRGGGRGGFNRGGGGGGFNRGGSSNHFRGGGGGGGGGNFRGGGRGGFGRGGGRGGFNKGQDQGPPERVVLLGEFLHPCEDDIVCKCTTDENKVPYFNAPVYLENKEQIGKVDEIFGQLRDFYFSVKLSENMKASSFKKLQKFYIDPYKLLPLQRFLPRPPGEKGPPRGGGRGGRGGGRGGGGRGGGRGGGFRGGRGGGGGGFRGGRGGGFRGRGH

SMILES | viability at 72 h, 1 µM [1] | viability at 72 h, 10 µM [1] | activity at 1 µM ([2]; 1 μM) | activity at 10 µM ([2]; 10 μM) | activity at 100 µM [2] | Relative MTT viability (%) [4] | viability at 72 h, 1 µM [5] | viability at 72 h, 10 µM [5] | viability at 72 h, 100 µM [5] | also measured
Nc1ccc2c(c1N)C(=O)c1ccccc1C2=O [1,2-diaminoanthraquinone, reference compound] | 105 ± 9.37% | 95.5 ± 3.75% | 98.5 ± 11.7% | 77.3 ± 11.6% | 18.2 ± 4.45% | – | – | – | – | viability at 72 h, 100 µM [1]: 39.3 ± 8.84%
O=C1c2ccccc2C(=O)c2c1ccc1nc(CCl)[nH]c21 [CL01, 2-(chloromethyl)-1H-anthra[1,2-d]imidazole-6,11-dione] | 82.3 ± 6.19% | < 50% | 69.2 ± 1.89% | -0.58 ± 1.16% | 2.87 ± 1.42% | – | – | – | – | Relative MTT viability (%) ([3]; human, 72 h, 100 µM): −5.28 ± 1.13%
CN(Cc1nc2ccc3c(c2[nH]1)C(=O)c1ccccc1C3=O)Cc1c2ccccc2cc2ccccc12 [CL11, 2-(((anthracen-10-yl)-N-methylmethanamino)methyl)-1H-anthra[1,2-d]imidazole-6,11-dione] | – | – | – | – | – | – | – | – | – | Relative SEAP activity (%) ([2]; 1 μM): 101.69 ± 5.82%; Relative SEAP activity (%) ([2]; 10 μM): 77.46 ± 6.40%; Relative MTT viability (%) ([3]; 1 µM): 98.03 ± 4.48%; Relative MTT viability (%) ([3]; 10 µM): 83.80 ± 5.64%
O=C1c2ccccc2C(=O)c2c1ccc1nc(CNCc3cccc(C(F)(F)F)c3)[nH]c21 [CL13, 2-((3-(trifluoromethyl)benzylamino)methyl)-1H-anthra[1,2-d]imidazole-6,11-dione] | – | – | 87.1 ± 2.04% | 89.5% | 4.27% | 32.26 ± 2.68% | 114 ± 3.31% | 110% | > 40% | –
CC1CCN(Cc2nc3ccc4c(c3[nH]2)C(=O)c2ccccc2C4=O)CC1 [CL17, 2-((4-methylpiperidin-1-yl)methyl)-1H-anthra[1,2-d]imidazole-6,11-dione] | – | – | 102 ± 4.81% | 97.3% | 25.6% | 32.26 ± 2.68% | 114 ± 3.31% | 110% | > 40% | –
O=C1c2ccccc2C(=O)c2c1ccc1nc(CN3CCC(CCCC4CCNCC4)CC3)[nH]c21 [CL20, 2-((4-(3-(piperidin-4-yl)propyl)piperidin-1-yl)methyl)-1H-anthra[1,2-d]imidazole-6,11-dione] | – | – | 96 ± 5.48% | 7.52% | 3.08% | – | 97 ± 4.74% | < 50% | – | telomerase inhibiting effect (TRAP) ([6]; 1 μM): telomerase inhibiting effect could be observed still; inhibition effect/activity of telomerase (TRAP) [6]: more significant inhibition effect/activity of telomerase; also recorded: highest inhibition effect/activity of telomerase
CCN1CCN(Cc2nc3ccc4c(c3[nH]2)C(=O)c2ccccc2C4=O)CC1 [CL25, 2-((4-ethylpiperazin-1-yl)methyl)-1H-anthra[1,2-d]imidazole-6,11-dione] | – | – | 91.8 ± 3% | 13.6% | -4.43% | – | 86.2 ± 5.18% | < 50% | – | inhibition effect/activity of telomerase (TRAP) [6]: more significant inhibition effect/activity of telomerase
COc1cccc(N2CCN(Cc3nc4ccc5c(c4[nH]3)C(=O)c3ccccc3C5=O)CC2)c1 [CL32, 2-((4-(3-methoxyphenyl)piperazin-1-yl)methyl)-1H-anthra[1,2-d]imidazole-6,11-dione] | 81.3 ± 9.72% | > 50% | 105 ± 5.64% | < 50% | 3.33% | – | – | – | – | viability at 72 h, 100 µM [1]: 23.9%
O=C1c2ccccc2C(=O)c2c1ccc1nc(CCCl)[nH]c21 [CL35, 2-(2-chloroethyl)-1H-anthra[1,2-d]imidazole-6,11-dione] | – | – | 94.7 ± 9.12% | 82.8% | 7.62% | 40.27 ± 1.32% | 91.1 ± 5.56% | 85.6% | > 40% | –
O=C1c2ccccc2C(=O)c2c1ccc1nc(CCN3CCN(c4ccccc4)CC3)[nH]c21 [CL37, 2-(2-(4-phenylpiperazin-1-yl)ethyl)-1H-anthra[1,2-d]imidazole-6,11-dione] | 94 ± 0.98% | 96.5% | 104 ± 4.96% | 92.7% | 36.6% | – | – | – | – | –
O=C1c2ccccc2C(=O)c2c1ccc1nc(CCN3CCN(c4ccccn4)CC3)[nH]c21 [CL38, 2-(2-(4-(pyridin-2-yl)piperazin-1-yl)ethyl)-1H-anthra[1,2-d]imidazole-6,11-dione] | – | – | 87.6 ± 8.63% | 62.9% | 1.49% | 57.03 ± 10.76% | 98 ± 7.72% | 92.8% | > 40% | –
COc1cccc2c1C(=O)c1c(O)c3c(c(O)c1C2=O)C[C@@](O)(C(=O)CO)C[C@@H]3O[C@H]1C[C@H](N)[C@H](O)[C@H](C)O1 [doxorubicin, reference compound] | 17.1 ± 5.37% | – | 33.8 ± 3.22% | 13.6 ± 3.56% | 5.18 ± 4.01% | – | – | – | – | Relative MTT viability (%) ([3]; human, 72 h, 10 µM): −9.79 ± 2.78%; Relative MTT viability (%) ([3]; human, 72 h, 100 µM): −11.38 ± 4.34%
O=C1c2c(O)ccc(O)c2C(=O)c2c(NCCNCCO)ccc(NCCNCCO)c21 [mitoxantrone, reference compound] | 23.7 ± 8.06% | – | 20.8 ± 1.56% | 9.92 ± 4.8% | 7.19 ± 1.59% | – | – | – | – | Relative MTT viability (%) ([3]; human, 72 h, 10 µM): −8.51 ± 1.13%; Relative MTT viability (%) ([3]; human, 72 h, 100 µM): −0.44 ± 1.01%
